Key:
[1] = target: T1, HCV polymerase (NS5B) type 1a (Hepatitis C virus genotype 1a, UniProt P26664); assay: Assay of enzyme (HCV polymerase) inhibitory activity, type 1a enzyme; assay type: biochemical, HCV type 1a (cloned from the blood of patients)
T1 construct: made in house; host or cells: Escherichia coli (by the 'similar method' of the 1b enzyme)
Method in brief: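 IC50 values derive from radioactivity of newly synthesized RNA with versus without test compound. The enzyme was C-terminally truncated type 1a NS5B, 1.5 μg/ml, run 60 min at 25° C with 3H-UTP-labelled nucleotides.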

[2] = target: T2, HCV polymerase (NS5B) type 1b (Hepatitis C virus genotype 1b, UniProt P26663); assay: Assay of enzyme (HCV polymerase) inhibitory activity, type 1b enzyme; assay type: biochemical, HCV BK strain (type 1b)
T2 construct: a region encoding NS5B (J Virol 1991 March, 65(3), 1105-13, 544 amino acids after deletion of 47 amino acids on the C-terminal); 6xHis (C); made in house; host or cells: Escherichia coli
Method in brief: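 Polymerase activity was followed as radiolabelled UTP incorporation by E. coli-expressed, His-tagged NS5B of HCV type 1b lacking its last 47 residues. Conditions: 2 μM UTP, 50 μM other NTPs, Mg2+ buffer at pH 7.5, 25 °C for 60 min. Inhibition relative to compound-free reactions gave IC50.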

[3] = HCV polymerase inhibitory activity (IC50), 1a, type 1a enzyme 1.5 μg/ml, 25° C., 60 min
[4] = HCV polymerase inhibitory activity (IC50), 1b, type 1b enzyme 0.5 μg/ml, 25° C., 60 min
[5] = HCV polymerase inhibitory activity IC50, 1a, type 1a enzyme
[6] = HCV polymerase inhibitory activity IC50, 1b, type 1b enzyme

SMILES	IC50 [1, 3] [µM]	IC50 [2, 4] [µM]	IC50 [1, 5] [µM]	IC50 [2, 6] [µM]
COC(=O)CCCC(=O)N1CCN(S(=O)(=O)c2ccc(C(F)(F)F)cc2)[C@@H](C(=O)NCc2ccc(C(C)C)cc2)C1 [Example 174, 5-[(R)-3-(4-isopropyl-benzylcarbamoyl)-4-(4-trifluoromethyl-benzenesulfonyl)-piperazin-1-yl]-5-oxo-pentanoic acid methyl ester]	0.1 to 1	0.1 to 1		
O=C(NCc1ccc(OC(F)F)cc1)[C@H]1CN(c2nc3ncncc3s2)CCN1S(=O)(=O)c1ccc(OC(F)(F)F)cc1 [Example 932, (R)-4-thiazolo[4,5-d]pyrimidin-2-yl-1-(4-trifluoromethoxy-benzenesulfonyl)-piperazine-2-carboxylic acid 4-difluoromethoxy-benzylamide]			< 0.1	< 0.1
COc1ccccc1NC(=O)N1CCN(S(=O)(=O)c2ccc(C(F)(F)F)cc2)[C@@H](C(=O)NCc2ccc(C(C)C)cc2)C1 [Example 272, (R)-4-(4-trifluoromethyl-benzenesulfonyl)-piperazine-1,3-dicarboxylic acid 3-(4-isopropyl-benzylamide) 1-[(2-methoxy-phenyl)-amide]]	> 1	0.1 to 1		
CC(C)c1cc(=O)nc2sc(N3CCN(S(=O)(=O)c4ccc(OC(F)(F)F)cc4)[C@@H](C(=O)NCc4ccc(OC(F)F)cc4)C3)nn12 [Example 1089, (R)-4-(5-isopropyl-7-oxo-7H-[1,3,4]thiadiazolo[3,2-a]pyrimidin-2-yl)-1-(4-trifluoromethoxy-benzenesulfonyl)-piperazine-2-carboxylic acid 4-difluoromethoxy-benzylamide]			< 0.1	< 0.1
CCCc1ccc(CNC(=O)[C@H]2CN(c3cnc(C(=O)O)cn3)CCN2S(=O)(=O)c2ccc(CC)cc2)c(Cl)c1 [Example 485, (R)-3-(2-chloro-4-propyl-benzylcarbamoyl)-4-(4-ethyl-benzenesulfonyl)-3,4,5,6-tetrahydro-2H-[1,2′]bipyrazinyl-5′-carboxylic acid]	< 0.1	< 0.1		
N#Cc1ncc2sc(N3CCN(S(=O)(=O)c4ccc(OC(F)(F)F)cc4)[C@@H](C(=O)NCc4ccc(OC(F)(F)F)cc4)C3)nc2n1 [Example 964, (R)-4-(5-cyano-thiazolo[4,5-d]pyrimidin-2-yl)-1-(4-trifluoromethoxy-benzenesulfonyl)-piperazine-2-carboxylic acid 4-trifluoromethoxy-benzylamide]			< 0.1	< 0.1
CC(C)c1ccc(CNC(=O)[C@H]2CN(C(=O)Nc3ccnc(C(=O)OC(C)(C)C)c3)CCN2S(=O)(=O)c2ccc(C(F)(F)F)cc2)cc1 [Example 301, 4-{[(R)-3-(4-isopropyl-benzylcarbamoyl)-4-(4-trifluoromethyl-benzenesulfonyl)-piperazine-1-carbonyl]-amino}-pyridine-2-carboxylic acid tert-butyl ester]	< 0.1	< 0.1		
O=C(NCc1ccc(OC(F)(F)F)cc1)[C@H]1CN(c2nn3cnnc3s2)CCN1S(=O)(=O)c1ccc(C(F)(F)F)cc1 [Example 953, (R)-4-[1,2,4]triazolo[3,4-b][1,3,4]thiadiazol-6-yl-1-(4-trifluoromethyl-benzenesulfonyl)-piperazine-2-carboxylic acid 4-trifluoromethoxy-benzylamide]			< 0.1	< 0.1
CC(=O)N1CCN(S(=O)(=O)c2ccc(Br)cc2)C(C(=O)NCc2ccc(C(F)(F)F)cc2)C1 (stereo not drawn) [Example 22, 4-acetyl-1-(4-bromo-benzenesulfonyl)-piperazine-2-carboxylic acid 4-trifluoromethyl-benzylamide]	> 1	> 1		
CCCc1ccc(S(=O)(=O)N2CCN(C(=O)Nc3ccncc3)C[C@@H]2C(=O)NCc2ccc(C(C)C)cc2)cc1 [Example 295, (R)-4-(4-propyl-benzenesulfonyl)-piperazine-1,3-dicarboxylic acid 3-(4-isopropyl-benzylamide) 1-pyridin-4-ylamide]	< 0.1	< 0.1		
O=C(NCc1ccc(OC(F)(F)F)cc1)[C@H]1CN(c2cnc3cnccc3n2)CCN1S(=O)(=O)c1ccc(OC(F)(F)F)cc1 [Example 745, (R)-4-pyrido[3,4-b]pyrazin-2-yl-1-(4-trifluoromethoxy-benzenesulfonyl)-piperazine-2-carboxylic acid 4-trifluoromethoxy-benzylamide]			< 0.1	< 0.1
CC(=O)N1CCN(S(=O)(=O)c2ccc(C(C)C)cc2)[C@@H](C(=O)NCc2ccc(CCO)cc2)C1 [Example 224, (R)-4-acetyl-1-(4-isopropyl-benzenesulfonyl)-piperazine-2-carboxylic acid 4-(2-hydroxy-ethyl)-benzylamide]	> 1	> 1		
Cc1nc(N2CCN(S(=O)(=O)c3ccc(OC(F)(F)F)cc3)[C@@H](C(=O)NCc3ccc(N4CCCC4)nc3)C2)sc1C(=O)O [Example 390, 4-methyl-2-[(R)-3-[(6-pyrrolidin-1-yl-pyridin-3-ylmethyl)-carbamoyl]-4-(4-trifluoromethoxy-benzenesulfonyl)-piperazin-1-yl]-thiazole-5-carboxylic acid]	0.1 to 1	< 0.1		
O=C(NCc1ccc(OC(F)F)cc1)[C@H]1CN(c2nc3nc(C4CC4)ncc3s2)CCN1S(=O)(=O)c1ccc(OC(F)(F)C(F)F)cc1 [Example 1018, (R)-4-(5-cyclopropyl-thiazolo[4,5-d]pyrimidin-2-yl)-1-[4-(1,1,2,2-tetrafluoro-ethoxy)-benzenesulfonyl]-piperazine-2-carboxylic acid 4-difluoromethoxy-benzylamide]			< 0.1	< 0.1
CN(C)c1ccc(CNC(=O)C2CN(C(=O)CN3CCCCC3)CCN2S(=O)(=O)c2ccc(I)cc2)cc1 (stereo not drawn) [Example 102, 1-(4-iodo-benzenesulfonyl)-4-(2-piperidin-1-yl-acetyl)-piperazine-2-carboxylic acid 4-dimethylamino-benzylamide]	> 1	> 1		
CN1CCN(Cc2cnc(N3CCN(S(=O)(=O)c4ccc(OC(F)(F)F)cc4)[C@@H](C(=O)NCc4ccc(C(C)(C)C)cc4)C3)cn2)CC1 [Example 594, (R)-5′-(4-methyl-piperazin-1-ylmethyl)-4-(4-trifluoromethoxy-benzenesulfonyl)-3,4,5,6-tetrahydro-2H-[1,2′]bipyrazinyl-3-carboxylic acid 4-tert-butyl-benzylamide]	< 0.1	< 0.1		
CCC(F)(F)c1ccc(CNC(=O)[C@H]2CN(C(=O)Nc3ccnc(C(=O)OC(C)(C)C)c3)CCN2S(=O)(=O)c2ccc(OC(F)(F)F)cc2)cc1 [Example 491, 4-{[(R)-3-[4-(1,1-difluoro-propyl)-benzylcarbamoyl]-4-(4-trifluoromethoxy-benzenesulfonyl)-piperazine-1-carbonyl]-amino}-pyridine-2-carboxylic acid tert-butyl ester]	< 0.1	< 0.1		
CC(=O)N1CCN(S(=O)(=O)c2ccc(C(=O)O)cc2)C(C(=O)NCc2ccc(C(F)(F)F)cc2)C1 (stereo not drawn) [Example 107, 4-[4-acetyl-2-(4-trifluoromethyl-benzylcarbamoyl)-piperazine-1-sulfonyl]-benzoic acid]	> 1	> 1		
